ChEMBL document CHEMBL1138694, “Discovery of small molecule antagonists of TRPV1” (2004)

How the values were obtained:
[1] = target: Transient receptor potential cation channel subfamily V member 1 (Homo sapiens) (UniProt Q8NER1); assay: Antagonistic activity against human transient receptor potential vanilloid type 1 in FLIPR assay; format: functional
[2] = target: Transient receptor potential cation channel subfamily V member 1 (Cavia porcellus) (UniProt Q6R5A3); assay: Antagonistic activity against guinea pig Transient receptor potential vanilloid type 1 expressed in HEK293 cells compared to capsaicin
[3] = Inhibition of capsaicin- response in rat dorsal root ganglion; format: functional
[4] = Antagonistic activity against rat transient receptor potential vanilloid type 1 expressed in HEK293 cells compared to capsaicin; format: functional

Sequence of Transient receptor potential cation channel subfamily V member 1 (Homo sapiens) (Q8NER1 whole entry): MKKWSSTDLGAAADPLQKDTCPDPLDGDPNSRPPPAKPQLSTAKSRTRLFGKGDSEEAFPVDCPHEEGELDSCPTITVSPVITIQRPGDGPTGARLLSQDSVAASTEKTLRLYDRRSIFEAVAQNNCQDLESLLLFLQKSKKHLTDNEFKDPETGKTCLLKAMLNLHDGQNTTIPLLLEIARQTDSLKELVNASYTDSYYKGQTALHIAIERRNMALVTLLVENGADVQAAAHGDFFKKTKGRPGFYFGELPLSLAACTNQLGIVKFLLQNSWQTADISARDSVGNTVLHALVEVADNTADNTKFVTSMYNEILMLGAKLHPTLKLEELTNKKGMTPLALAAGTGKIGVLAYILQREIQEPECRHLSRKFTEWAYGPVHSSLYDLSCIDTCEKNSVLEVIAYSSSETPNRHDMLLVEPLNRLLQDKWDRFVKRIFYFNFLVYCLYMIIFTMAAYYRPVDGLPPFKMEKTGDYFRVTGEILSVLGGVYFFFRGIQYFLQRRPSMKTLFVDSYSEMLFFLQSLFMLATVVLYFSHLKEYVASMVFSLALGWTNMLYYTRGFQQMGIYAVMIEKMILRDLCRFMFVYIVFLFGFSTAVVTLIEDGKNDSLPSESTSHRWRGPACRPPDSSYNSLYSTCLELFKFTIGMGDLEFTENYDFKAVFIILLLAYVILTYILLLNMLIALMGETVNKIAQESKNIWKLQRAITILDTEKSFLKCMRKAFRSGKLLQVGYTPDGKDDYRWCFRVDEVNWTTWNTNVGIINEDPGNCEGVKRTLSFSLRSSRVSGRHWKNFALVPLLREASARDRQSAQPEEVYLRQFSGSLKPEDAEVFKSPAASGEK
Sequence of Transient receptor potential cation channel subfamily V member 1 (Cavia porcellus) (Q6R5A3 whole entry, looked up): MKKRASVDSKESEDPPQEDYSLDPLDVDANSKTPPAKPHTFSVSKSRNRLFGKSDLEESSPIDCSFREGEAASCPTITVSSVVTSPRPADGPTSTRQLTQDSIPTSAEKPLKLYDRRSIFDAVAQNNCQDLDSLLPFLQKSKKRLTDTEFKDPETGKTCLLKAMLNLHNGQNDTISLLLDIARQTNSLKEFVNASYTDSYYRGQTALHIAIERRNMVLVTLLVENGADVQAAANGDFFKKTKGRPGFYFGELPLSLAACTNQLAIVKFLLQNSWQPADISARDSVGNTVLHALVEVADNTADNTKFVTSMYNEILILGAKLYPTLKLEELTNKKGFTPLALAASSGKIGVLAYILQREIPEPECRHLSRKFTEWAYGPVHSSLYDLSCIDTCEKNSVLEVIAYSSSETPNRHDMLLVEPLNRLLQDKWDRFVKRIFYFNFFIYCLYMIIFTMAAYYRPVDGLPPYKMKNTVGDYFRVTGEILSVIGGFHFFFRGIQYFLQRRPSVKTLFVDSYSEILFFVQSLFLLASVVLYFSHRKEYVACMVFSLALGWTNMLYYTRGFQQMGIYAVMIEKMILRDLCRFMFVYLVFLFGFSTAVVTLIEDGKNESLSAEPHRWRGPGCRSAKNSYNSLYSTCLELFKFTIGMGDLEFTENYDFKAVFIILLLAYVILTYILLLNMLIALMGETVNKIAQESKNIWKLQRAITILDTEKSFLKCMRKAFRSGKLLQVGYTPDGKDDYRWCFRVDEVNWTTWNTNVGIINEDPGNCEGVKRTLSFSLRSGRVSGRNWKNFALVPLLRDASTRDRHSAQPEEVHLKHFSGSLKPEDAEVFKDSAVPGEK

Structure (SMILES)	pKb [1]	pKb [2]	pKb [3]	pKb [4]
CCN(CCNC(=O)Nc1ccccc1Br)c1cccc(C)c1	7.8	7.5	7.4	7.7
COc1cccc(NC(=O)/C=C/c2ccc(Cl)cc2)c1	7.7	–	–	–
Oc1cc2c(cc1O)CN(C(=S)NCCc1ccc(Cl)cc1)CCC2	7.5	–	–	–
